Experimental data: PubChem BioAssay (NCI)
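Cells were grown in 96-well plates and exposed to each compound for 48 hours at five concentrations; endpoints were interpolated linearly between bracketing concentrations, or set to the highest concentration if not reached. At the GI50, growth is halved. TGI marks complete inhibition of growth.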

Columns and labels:
Experiment in all cases: DTP human tumour cell line panel, 48 h
UACC-62 melanoma = system: UACC-62 melanoma
RXF 393 renal = system: RXF 393 renal
HS 578T breast = system: HS 578T breast
LOX IMVI melanoma = system: LOX IMVI melanoma
HOP-92 NSCLC = system: HOP-92 NSCLC
BT-549 breast = system: BT-549 breast
DU-145 prostate = system: DU-145 prostate
NCI-H460 lung = system: NCI-H460 lung
OVCAR-4 ovarian = system: OVCAR-4 ovarian
ACHN renal = system: ACHN renal

Row | Structure (SMILES) | GI50 (UACC-62 melanoma) | TGI (UACC-62 melanoma) | GI50 (RXF 393 renal) | TGI (RXF 393 renal) | GI50 (HS 578T breast) | TGI (HS 578T breast) | GI50 (LOX IMVI melanoma) | TGI (LOX IMVI melanoma) | GI50 (HOP-92 NSCLC) | TGI (HOP-92 NSCLC) | GI50 (BT-549 breast) | TGI (BT-549 breast) | GI50 (DU-145 prostate) | TGI (DU-145 prostate) | GI50 (NCI-H460 lung) | TGI (NCI-H460 lung) | GI50 (OVCAR-4 ovarian) | TGI (OVCAR-4 ovarian) | GI50 (ACHN renal) | TGI (ACHN renal)
1 | COc1ccc(C(SCC(N)C(=O)O)(c2ccccc2)c2ccccc2)cc1 (stereo not given) | 0.171 µM | > 56.7 µM | 0.19 µM | > 100 µM | 0.0432 µM | 3.1 µM | 0.668 µM | 25.7 µM | 2 µM | 66.8 µM | 2.72 µM | > 100 µM | 0.272 µM | 0.7 µM | 0.23 µM | > 41.9 µM | 29.7 µM | > 100 µM | 3.73 µM | > 100 µM
2 | c1cc2[nH]ncc2cc1-c1nc2ccc3[nH]ncc3c2c2c1CCCC2 | 0.425 µM | 3.53 µM | 0.822 µM | 2.86 µM | 1.71 µM | 13.7 µM | 0.811 µM | 4.54 µM | 0.966 µM | 4.58 µM | 1 µM | 3.78 µM | 2.27 µM | 11.2 µM | 1.2 µM | 10.5 µM | 1.97 µM | 14.4 µM | 0.583 µM | 10.7 µM
